The target in the first test is human PDE1B (Homo sapiens (Human), UniProt Q01064). Put plainly: PDE1B inhibitory assay (IMAP TR-FRET). The conditions noted are these: PDE1B pIC50, negative log of half-maximal molar inhibitory concentration; 200 nM FAM-cAMP, Calmodulin, CaCl2.
Consider `O=c1n(Cc2ccccc2Cl)c2sccc2c2ncnn12` [Example 1, 6-(2-Chlorobenzyl)thieno[3,2-e][1,2,4]triazolo[1,5-c]pyrimidin-5(6H)-one], for which the IC50 was in the range of 1000 to 10000 nM.

Take `O=c1n(Cc2cccc(Cl)c2)c2sccc2c2ncnn12` [Example 2]: the IC50 lay in the range of 1000 to 10000 nM.

Compound `Cc1csc2c1c1ncnn1c(=O)n2Cc1ccc(Cl)cc1` [Example 3] came in with an IC50 of 100 to 1000 nM.

As to `O=c1n(Cc2ccc(Cl)cc2)c2sccc2c2ncnn12` [Example 5], the IC50 fell in the range of 100 to 1000 nM.

For the compound `Cc1csc2c1c1ncnn1c(=O)n2Cc1ccccc1` [Example 6], the IC50 is 100 to 1000 nM.

Compound `O=c1n(Cc2ccccc2Cl)c2sc(Cc3ccccc3)cc2c2ncnn12` [Example 8] returned an IC50 of 100 to 1000 nM.

In the case of `O=c1n(Cc2cccc(Cl)c2)c2sc(Cc3ccccc3)cc2c2ncnn12` [Example 9], the concentration for half-maximal inhibition (IC50) lay within 100 to 1000 nM.

`Cc1csc2c1c1ncnn1c(=O)n2Cc1ccccc1Cl` [Example 10] had an IC50 of 1000 to 10000 nM.

The compound `Cc1csc2c1c1ncnn1c(=O)n2Cc1cccc(Cl)c1` [Example 11] displayed an IC50 of 100 to 1000 nM.

`Cc1cc2c(s1)n(Cc1ccccc1)c(=O)n1ncnc21` [Example 12] displayed an IC50 of 1000 to 10000 nM.

The compound `Cc1cc2c(s1)n(Cc1ccccc1Cl)c(=O)n1ncnc21` [Example 13] showed an IC50 of 1000 to 10000 nM.

`Cc1cc2c(s1)n(Cc1ccc(Cl)cc1)c(=O)n1ncnc21` [Example 15] gave an IC50 of 100 to 1000 nM.

As to `Cc1cc2c(s1)n(Cc1cccc(Cl)c1)c(=O)n1ncnc21` [Example 16], the IC50 fell in the range of 1000 to 10000 nM.

`O=c1n(Cc2ccccc2)c2sc(Cc3ccccc3)cc2c2ncnn12` [Example 17] gave an IC50 of 100 to 1000 nM.

The compound `O=c1n(Cc2ccc(-c3ccccc3)cc2)c2sc(Cc3ccccc3)cc2c2ncnn12` [Example 18] showed an IC50 of 1000 to 10000 nM.

As for `CC(C)CCc1cc2c(s1)n(Cc1ccccc1Cl)c(=O)n1ncnc21` [Example 19], the IC50 is 1000 to 10000 nM.

`CC(C)CCc1cc2c(s1)n(Cc1cccc(Cl)c1)c(=O)n1ncnc21` [Example 20] displayed an IC50 of 1000 to 10000 nM.

Consider `O=c1n(Cc2ccc(Cl)cc2)c2sc(Cc3ccccc3)cc2c2ncnn12` [Example 22], for which the IC50 was 100 to 1000 nM.

The compound `CC(C)CCc1cc2c(s1)n(Cc1ccc(Cl)cc1)c(=O)n1ncnc21` [Example 23] came in with an IC50 of 100 to 1000 nM.

`O=c1n(Cc2ccccc2)c2sccc2c2ncnn12` [Example 24] displayed an IC50 of 1000 to 10000 nM.

Regarding `CC(C)CCc1cc2c(s1)n(Cc1ccccc1)c(=O)n1ncnc21` [Example 25], the IC50 was in the range of 100 to 1000 nM.

For `Cc1sc2c(c1C)c1ncnn1c(=O)n2Cc1ccc(Cl)cc1` [Example 26], the IC50 was in the range of 100 to 1000 nM.

On to `COc1ccc(Cn2c(=O)n3ncnc3c3ccsc32)cc1` [Example 27], for which the concentration for half-maximal inhibition (IC50) was in the range of 100 to 1000 nM.

Compound `COc1ccc(Cn2c(=O)n3ncnc3c3c(C)csc32)cc1` [Example 28] showed an IC50 of 100 to 1000 nM.

`COc1ccc(Cn2c(=O)n3ncnc3c3cc(CN(C)C)sc32)cc1` [Example 30] came in with an IC50 of 100 to 1000 nM.

For the compound `COc1ccc(Cn2c(=O)n3ncnc3c3cc(CN4CCN(C)CC4)sc32)cc1` [Example 32], the IC50 was in the range of 100 to 1000 nM.

`COc1ccc(Cn2c(=O)n3ncnc3c3cc(-c4c(C)noc4C)sc32)cc1` [Example 42] returned an IC50 of 100 to 1000 nM.

For the compound `COc1ccc(Cn2c(=O)n3ncnc3c3c(C)c(CN4CCCC4)sc32)cc1` [Example 43, 6-(4-Methoxybenzyl)-9-methyl-8-(pyrrolidin-1-ylmethyl)thieno[3,2-e][1,2,4]triazolo[1,5-c]pyrimidin-5(6H)-one], the 50% inhibitory concentration (IC50) is 100 to 1000 nM.

For `COc1ccc(Cn2c(=O)n3ncnc3c3c(C)c(CN4CCNCC4)sc32)cc1` [Example 49], the IC50 was 100 to 1000 nM.

The test is the same for the next values; noted with them: negative log of half-maximal molar inhibitory concentration; 200 nM FAM-cAMP, Calmodulin, CaCl2.
In the case of `O=c1n(Cc2ccc(-c3ccccc3)cc2)c2sccc2c2ncnn12` [Example 4], the “PDE1B pIC50” value is given as under 5.

`Cc1csc2c1c1ncnn1c(=O)n2Cc1ccc(-c2ccccc2)cc1` [Example 7]: the “PDE1B pIC50” value is listed as under 5.

Turning to `Cc1cc2c(s1)n(Cc1ccc(-c3ccccc3)cc1)c(=O)n1ncnc21` [Example 14], the “PDE1B pIC50” value was under 5.

For `CC(C)CCc1cc2c(s1)n(Cc1ccc(-c3ccccc3)cc1)c(=O)n1ncnc21` [Example 21], the “PDE1B pIC50” value was under 5.

In the case of `COc1ccc(Cn2c(=O)n3ncnc3c3cc(CN4CCCOCC4)sc32)cc1` [Example 29, 8-((1,4-Oxazepan-4-yl)methyl)-6-(4-methoxybenzyl)thieno[3,2-e][1,2,4]triazolo[1,5-c]pyrimidin-5(6H)-one], the “PDE1B pIC50” value is listed as over 7.

In the case of `COc1ccc(Cn2c(=O)n3ncnc3c3cc(CN4CCOCC4)sc32)cc1` [Example 31], the “PDE1B pIC50” value was over 7.

On to `COc1ccc(Cn2c(=O)n3ncnc3c3cc(CN4C[C@@H](C)O[C@@H](C)C4)sc32)cc1` [Example 33], for which the “PDE1B pIC50” value was over 7.

For the compound `CCN1CCN(Cc2cc3c(s2)n(Cc2ccc(OC)cc2)c(=O)n2ncnc32)CC1=O` [Example 34], the “PDE1B pIC50” value is on record as over 7.

`COc1ccc(Cn2c(=O)n3ncnc3c3cc(CN4CCN(S(C)(=O)=O)CC4)sc32)cc1` [Example 35]: the “PDE1B pIC50” value was over 7.

`COc1ccc(Cn2c(=O)n3ncnc3c3cc(CN4CCOC(C)(C)C4)sc32)cc1` [Example 36]: the “PDE1B pIC50” value is on record as over 7.

Regarding `COc1ccc(Cn2c(=O)n3ncnc3c3cc(CN4CC5CC4CO5)sc32)cc1` (centres unmarked) [Example 37], the “PDE1B pIC50” value was over 7.

Regarding `COc1ccc(Cn2c(=O)n3ncnc3c3cc(CN4CC5(CCOCC5)C4)sc32)cc1` [Example 38], the “PDE1B pIC50” value is over 7.

Take `COc1ccc(Cn2c(=O)n3ncnc3c3cc(CN4CCC5(CC4)COC5)sc32)cc1` [Example 39]: the “PDE1B pIC50” value is over 7.

As for `COc1ccc(Cn2c(=O)n3ncnc3c3cc(CN4CCN5C(=O)OCC5C4)sc32)cc1` (centres unmarked) [Example 40], the “PDE1B pIC50” value is recorded as over 7.

As for `COc1ccc(Cn2c(=O)n3ncnc3c3cc(-c4cc(C(F)(F)F)nn4C)sc32)cc1` [Example 41, 6-(4-Methoxybenzyl)-8-(1-methyl-3-(trifluoromethyl)-1H-pyrazol-5-yl)thieno[3,2-e][1,2,4]triazolo[1,5-c]pyrimidin-5(6H)-one], the “PDE1B pIC50” value was over 7.

With `COc1ccc(Cn2c(=O)n3ncnc3c3c(C)c(CN4CCOCC4)sc32)cc1` [Example 44], the “PDE1B pIC50” value is recorded as over 7.

`COc1ccc(Cn2c(=O)n3ncnc3c3c(C)c(CN(C)C)sc32)cc1` [Example 45]: the “PDE1B pIC50” value is given as over 7.

`COc1ccc(Cn2c(=O)n3ncnc3c3c(C)c(CN(C)C4CC4)sc32)cc1` [Example 46]: the “PDE1B pIC50” value is reported as over 7.

`COc1ccc(Cn2c(=O)n3ncnc3c3c(C)c(CN4CCC(O)CC4)sc32)cc1` [Example 47]: the “PDE1B pIC50” value is on record as over 7.

`COc1ccc(Cn2c(=O)n3ncnc3c3c(C)c(CN(CCO)Cc4ccccc4)sc32)cc1` [Example 48]: the “PDE1B pIC50” value is listed as over 7.

In the case of `COc1ccc(Cn2c(=O)n3ncnc3c3c(C)c(CNCC4(C)COC4)sc32)cc1` [Example 50], the “PDE1B pIC50” value is listed as over 7.

Consider `COc1ccc(Cn2c(=O)n3ncnc3c3c(C)c(CN4CCN(C(C)=O)CC4)sc32)cc1` [Example 51], for which the “PDE1B pIC50” value is on record as over 7.

With `COc1ccc(Cn2c(=O)n3ncnc3c3c(C)c(CNCc4cccnc4)sc32)cc1` [Example 52], the “PDE1B pIC50” value is on record as over 7.

As for `COc1ccc(Cn2c(=O)n3ncnc3c3c(C)c(CN4CCNC(=O)C4)sc32)cc1` [Example 53], the “PDE1B pIC50” value is over 7.

What is called IC50 is the concentration needed to halve the response being measured.

(Values after patent publication US10105367B2, “Therapeutic thiophene-, furan-, and pyridine-fused azolopyrimidin-5-(6h)-ones” (Dart Neuroscience (Cayman) Ltd., priority 2012, dated 2018).)
